Measurements published in patent publication US20090118332A1, “Therapeutic Agents - 551” (AstraZeneca AB, priority 2006, published 2009).

The molecules below were run against T1, human Fatty Acid Synthase (Homo sapiens, UniProt P49327) (assay: Human FAS enzyme assay (decrease in NADPH fluorescence)). Details: % inhibition at a concentration of 100 μmolar.
T1 construct: made in house
Assay type: biochemical
How it was run: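 In-house human FAS was preincubated with compound and NADPH for 15 min at room temperature in 0.1 M Tris pH 7.5 with EDTA, glutathione and BSA. Malonyl CoA and acetyl CoA (500 μM and 150 μM in the added mix) were then added for 60 min. IC50 came from time-zero-subtracted NADPH fluorescence (340/460 nm).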

T1 sequence (P49327 whole entry): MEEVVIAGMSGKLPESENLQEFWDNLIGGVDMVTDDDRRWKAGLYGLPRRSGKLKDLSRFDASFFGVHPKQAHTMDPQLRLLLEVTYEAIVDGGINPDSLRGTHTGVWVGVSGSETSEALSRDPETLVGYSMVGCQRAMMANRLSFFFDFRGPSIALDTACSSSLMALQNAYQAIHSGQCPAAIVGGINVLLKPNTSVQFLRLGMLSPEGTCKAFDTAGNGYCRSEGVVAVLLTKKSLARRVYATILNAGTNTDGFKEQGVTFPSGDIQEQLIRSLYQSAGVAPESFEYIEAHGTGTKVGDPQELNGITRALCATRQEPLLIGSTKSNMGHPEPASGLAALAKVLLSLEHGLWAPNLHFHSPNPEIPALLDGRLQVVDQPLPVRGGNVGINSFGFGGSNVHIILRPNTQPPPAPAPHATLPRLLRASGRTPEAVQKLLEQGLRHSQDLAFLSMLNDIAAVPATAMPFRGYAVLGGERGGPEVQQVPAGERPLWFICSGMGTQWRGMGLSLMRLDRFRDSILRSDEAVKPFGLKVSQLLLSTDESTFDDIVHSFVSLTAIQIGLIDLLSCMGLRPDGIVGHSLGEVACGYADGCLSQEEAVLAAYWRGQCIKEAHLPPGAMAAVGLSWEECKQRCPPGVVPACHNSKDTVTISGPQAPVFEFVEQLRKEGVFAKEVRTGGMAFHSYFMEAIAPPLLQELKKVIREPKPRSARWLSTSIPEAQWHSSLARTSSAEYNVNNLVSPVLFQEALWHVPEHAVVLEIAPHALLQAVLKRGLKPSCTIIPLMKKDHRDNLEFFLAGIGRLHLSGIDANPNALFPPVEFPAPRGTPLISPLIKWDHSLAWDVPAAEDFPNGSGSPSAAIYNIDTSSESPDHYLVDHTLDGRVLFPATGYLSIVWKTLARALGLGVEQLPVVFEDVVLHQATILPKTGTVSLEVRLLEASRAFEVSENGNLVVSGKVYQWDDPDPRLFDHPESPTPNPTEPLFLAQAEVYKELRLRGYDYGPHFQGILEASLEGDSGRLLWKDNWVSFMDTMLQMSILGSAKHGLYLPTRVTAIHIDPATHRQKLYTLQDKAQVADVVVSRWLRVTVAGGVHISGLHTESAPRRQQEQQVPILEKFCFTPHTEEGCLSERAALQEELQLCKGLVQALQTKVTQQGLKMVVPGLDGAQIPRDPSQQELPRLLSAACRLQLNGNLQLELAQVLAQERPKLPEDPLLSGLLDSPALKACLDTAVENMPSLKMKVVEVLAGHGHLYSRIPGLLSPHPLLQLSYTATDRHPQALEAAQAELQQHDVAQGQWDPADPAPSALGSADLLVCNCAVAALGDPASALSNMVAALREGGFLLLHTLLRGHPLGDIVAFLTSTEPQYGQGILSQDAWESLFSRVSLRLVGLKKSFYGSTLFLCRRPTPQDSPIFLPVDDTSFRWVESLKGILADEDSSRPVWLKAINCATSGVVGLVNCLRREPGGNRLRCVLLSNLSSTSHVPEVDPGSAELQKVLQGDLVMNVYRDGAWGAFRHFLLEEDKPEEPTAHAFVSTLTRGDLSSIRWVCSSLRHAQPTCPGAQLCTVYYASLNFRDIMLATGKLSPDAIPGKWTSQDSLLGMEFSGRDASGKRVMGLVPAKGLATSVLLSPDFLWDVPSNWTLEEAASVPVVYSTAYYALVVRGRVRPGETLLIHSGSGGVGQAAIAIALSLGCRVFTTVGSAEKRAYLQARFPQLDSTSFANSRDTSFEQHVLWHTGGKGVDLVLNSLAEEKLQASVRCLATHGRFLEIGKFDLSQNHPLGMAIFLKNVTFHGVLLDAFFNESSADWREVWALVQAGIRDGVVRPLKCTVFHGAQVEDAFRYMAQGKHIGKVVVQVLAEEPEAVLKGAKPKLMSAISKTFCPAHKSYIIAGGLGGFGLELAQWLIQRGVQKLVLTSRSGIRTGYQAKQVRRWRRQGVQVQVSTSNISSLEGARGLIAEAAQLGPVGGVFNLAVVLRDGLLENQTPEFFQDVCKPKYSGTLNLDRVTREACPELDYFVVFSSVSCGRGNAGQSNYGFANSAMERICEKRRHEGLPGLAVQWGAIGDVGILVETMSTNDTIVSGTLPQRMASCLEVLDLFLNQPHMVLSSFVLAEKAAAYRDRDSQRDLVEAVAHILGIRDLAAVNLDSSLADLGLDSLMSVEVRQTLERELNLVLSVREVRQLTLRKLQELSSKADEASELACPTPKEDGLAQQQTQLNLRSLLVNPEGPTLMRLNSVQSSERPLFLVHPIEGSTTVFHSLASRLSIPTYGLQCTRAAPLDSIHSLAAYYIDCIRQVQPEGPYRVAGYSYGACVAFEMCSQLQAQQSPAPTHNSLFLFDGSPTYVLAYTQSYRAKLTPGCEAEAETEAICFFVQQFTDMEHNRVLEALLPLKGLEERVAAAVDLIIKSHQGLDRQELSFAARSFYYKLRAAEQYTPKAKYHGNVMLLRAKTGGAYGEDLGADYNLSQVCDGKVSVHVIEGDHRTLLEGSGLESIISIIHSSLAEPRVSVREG

| inhibition at 100 µM [%] | Compound |
| --- | --- |
| 92.6 | Cc1ccc(C(=O)N2CCC(c3ccc(C#N)cc3)CC2)cc1NC(=O)NCCCCO [Example 185, 1-[5-[4-(4-cyanophenyl)piperidine-1-carbonyl]-2-methyl-phenyl]-3-(4-hydroxybutyl)urea] |
| 86.4 | Cc1ccc(C(=O)N2CCC(c3ccc(C#N)cc3)CC2)cc1NC(=O)NC(CO)CO [Example 186, 1-[5-[4-(4-cyanophenyl)piperidine-1-carbonyl]-2-methyl-phenyl]-3-(1,3-dihydroxypropan-2-yl)urea] |
| 89 | Cc1ccc(C(=O)N2CCC(c3ccc(C#N)cc3)CC2)cc1NC(=O)NCC(C)(C)CO [Example 188, 1-[5-[4-(4-cyanophenyl)piperidine-1-carbonyl]-2-methyl-phenyl]-3-(3-hydroxy-2,2-dimethyl-propyl)urea] |
| 85.6 | Cc1ccc(C(=O)N2CCC(c3ccc(C#N)cc3)CC2)cc1NC(=O)NCCOCCO [Example 189, 1-[5-[4-(4-cyanophenyl)piperidine-1-carbonyl]-2-methyl-phenyl]-3-[2-(2-hydroxyethoxy)ethyl]urea] |
| 82.9 | Cc1ccc(C(=O)N2CCC(c3ccc(C#N)cc3)CC2)cc1NC(=O)NC(C)(C)CO [Example 190, 1-[5-[4-(4-cyanophenyl)piperidine-1-carbonyl]-2-methyl-phenyl]-3-(1-hydroxy-2-methyl-propan-2-yl)urea] |
| 92.2 | Cc1ccc(C(=O)N2CCC(c3ccc(C#N)cc3)CC2)cc1NC(=O)NCCCO [Example 191, 1-[5-[4-(4-cyanophenyl)piperidine-1-carbonyl]-2-methyl-phenyl]-3-(3-hydroxypropyl)urea] |
| 85.1 | Cc1ccc(C(=O)N2CCC(c3ccc(C#N)cc3)CC2)cc1NC(=O)N[C@@H](CO)C(N)=O [Example 192, (2S)-2-[[5-[4-(4-cyanophenyl)piperidine-1-carbonyl]-2-methyl-phenyl]carbamoylamino]-3-hydroxy-propanamide] |
| 85.8 | Cc1ccc(C(=O)N2CCC(c3ccc(C#N)cc3)CC2)cc1NC(=O)N[C@H]1CC[C@H](O)CC1 [Example 193, 1-[5-[4-(4-cyanophenyl)piperidine-1-carbonyl]-2-methyl-phenyl]-3-(4-hydroxycyclohexyl)urea] |
| 84.3 | Cc1ccc(C(=O)N2CCC(c3ccc(C#N)cc3)CC2)cc1NC(=O)NC1(CO)CCCC1 [Example 194, 1-[5-[4-(4-cyanophenyl)piperidine-1-carbonyl]-2-methyl-phenyl]-3-[1-(hydroxymethyl)cyclopentyl]urea] |
| 91.7 | Cc1ccc(C(=O)N2CCC(c3ccc(C#N)cc3)CC2)cc1NC(=O)NCC(O)COc1ccccc1Cl (stereo not drawn) [Example 196, 3-[3-(2-chlorophenoxy)-2-hydroxy-propyl]-1-[5-[4-(4-cyanophenyl)piperidine-1-carbonyl]-2-methyl-phenyl]urea] |
| 84.4 | Cc1ccc(C(=O)N2CCC(c3ccc(C#N)cc3)CC2)cc1NC(=O)NC12CC3CC(CC(O)(C3)C1)C2 [Example 197, 1-[5-[4-(4-cyanophenyl)piperidine-1-carbonyl]-2-methyl-phenyl]-3-(3-hydroxy-1-adamantyl)urea] |
| 87.9 | COC[C@@H](CO)NC(=O)Nc1cc(C(=O)N2CCC(c3ccc(C#N)cc3)CC2)ccc1C [Example 198, 1-[5-[4-(4-cyanophenyl)piperidine-1-carbonyl]-2-methyl-phenyl]-3-[(2R)-1-hydroxy-3-methoxy-propan-2-yl]urea] |
| 96.3 | Cc1ccc(C(=O)N2CCC(c3ccc(C#N)cc3)CC2)cc1NC(=O)N[C@@H]1CCOC1 [Example 199, 1-[5-[4-(4-cyanophenyl)piperidine-1-carbonyl]-2-methyl-phenyl]-3-[(3R)-oxolan-3-yl]urea] |
| 91.8 | Cc1ccc(C(=O)N2CCC(c3ccc(C#N)cc3)CC2)cc1NC(=O)NCCCc1cn[nH]c1C [Example 200, 1-[5-[4-(4-cyanophenyl)piperidine-1-carbonyl]-2-methyl-phenyl]-3-[3-(3-methyl-2H-pyrazol-4-yl)propyl]urea] |
| 94 | CCc1ccc(C(=O)N2CCC(c3ccc(C#N)cc3)CC2)cc1NC(=O)NC(C)C [Example 201, 1-[5-[4-(4-cyanophenyl)piperidine-1-carbonyl]-2-ethyl-phenyl]-3-propan-2-yl-urea] |
| 97.3 | Cc1ccc(C(=O)N2CCC(c3ccc(C#N)cc3)CC2)cc1NC(=O)NCC(C)(C)NS(C)(=O)=O [Example 202, 1-[5-[4-(4-cyanophenyl)piperidine-1-carbonyl]-2-methyl-phenyl]-3-(2-methanesulfonamido-2-methyl-propyl)urea] |
| 91 | Cc1ccc(C(=O)N2CCC(c3ccc(C#N)cc3)CC2)cc1NC(=O)NCC(C)(C)N [Example 203, 3-(2-amino-2-methyl-propyl)-1-[5-[4-(4-cyanophenyl)piperidine-1-carbonyl]-2-methyl-phenyl]urea] |

| inhibition at 100 µM [%] | Compound |
| --- | --- |
| 91 | CCS(=O)(=O)NC(C)(C)CNC(=O)Nc1cc(C(=O)N2CCC(c3ccc(C#N)cc3)CC2)ccc1C [Example 204, 3-[5-[4-(4-cyanophenyl)piperidine-1-carbonyl]-2-methyl-phenyl]-1-[2-(ethylsulfonylamino)-2-methyl-propyl]urea] |
| 88.2 | Cc1ccc(C(=O)N2CCC(c3ccc(C#N)cc3)CC2)cc1NC(=O)NCC(C)(C)NC(=O)C(C)(C)C [Example 205, N-[1-[[5-[4-(4-cyanophenyl)piperidine-1-carbonyl]-2-methyl-phenyl]carbamoylamino]-2-methyl-propan-2-yl]-2,2-dimethyl-propanamide] |
| 83.8 | Cc1ccc(C(=O)N2CCC(c3ccc(C#N)cc3)CC2)cc1NC(=O)NCCCNC(=O)OC(C)(C)C [Example 206, tert-butyl N-[3-[[5-[4-(4-cyanophenyl)piperidine-1-carbonyl]-2-methyl-phenyl]carbamoylamino]propyl]carbamate] |
| 89.7 | Cc1ccc(C(=O)N2CCC(c3ccc(C#N)cc3)CC2)cc1NC(=O)NCCCN [Example 207, 3-(3-aminopropyl)-1-[5-[4-(4-cyanophenyl)piperidine-1-carbonyl]-2-methyl-phenyl]urea] |
| 84.9 | Cc1ccc(C(=O)N2CCC(c3ccc(C#N)cc3)CC2)cc1NC(=O)NC1CCN(C(=O)OC(C)(C)C)CC1 [Example 208, tert-butyl 4-[[5-[4-(4-cyanophenyl)piperidine-1-carbonyl]-2-methyl-phenyl]carbamoylamino]piperidine-1-carboxylate] |
| 89.7 | Cc1ccc(C(=O)N2CCC(c3ccc(C#N)cc3)CC2)cc1NC(=O)N[C@@H]1CCN(C(=O)OC(C)(C)C)C1 [Example 209, tert-butyl (3R)-3-[[5-[4-(4-cyanophenyl)piperidine-1-carbonyl]-2-methyl-phenyl]carbamoylamino]pyrrolidine-1-carboxylate] |
| 97.4 | Cc1ccc(C(=O)N2CCC(c3ccc(C#N)cc3)CC2)cc1NC(=O)N[C@H]1CCN(C(=O)OC(C)(C)C)C1 [Example 210, tert-butyl (3S)-3-[[5-[4-(4-cyanophenyl)piperidine-1-carbonyl]-2-methyl-phenyl]carbamoylamino]pyrrolidine-1-carboxylate] |
| 87.4 | Cc1ccc(C(=O)N2CCC(c3ccc(C#N)cc3)CC2)cc1NC(=O)NC1CCNCC1 [Example 211, 1-[5-[4-(4-cyanophenyl)piperidine-1-carbonyl]-2-methyl-phenyl]-3-(4-piperidyl)urea] |
| 97 | Cc1ccc(C(=O)N2CCC(c3ccc(C#N)cc3)CC2)cc1NC(=O)N[C@@H]1CCNC1 [Example 212, 1-[5-[4-(4-cyanophenyl)piperidine-1-carbonyl]-2-methyl-phenyl]-3-[(3R)-pyrrolidin-3-yl]urea] |
| 88.6 | Cc1ccc(C(=O)N2CCC(c3ccc(C#N)cc3)CC2)cc1NC(=O)N[C@H]1CCNC1 [Example 213, 1-[5-[4-(4-cyanophenyl)piperidine-1-carbonyl]-2-methyl-phenyl]-3-[(3S)-pyrrolidin-3-yl]urea] |
| 89.8 | Cc1ccc(C(=O)N2CCC(c3ccc(C#N)cc3)CC2)cc1NC(=O)NCCN(C)S(=O)(=O)C(C)C [Example 214, 1-[5-[4-(4-cyanophenyl)piperidine-1-carbonyl]-2-methyl-phenyl]-3-[2-(methyl-propan-2-ylsulfonyl-amino)ethyl]urea] |
| 100 | Cc1ccc(C(=O)N2CCC(c3ccc(C#N)cc3)CC2)cc1NC(=O)NCCCNS(C)(=O)=O [Example 215, 1-[5-[4-(4-cyanophenyl)piperidine-1-carbonyl]-2-methyl-phenyl]-3-(3-methanesulfonamidopropyl)urea] |
| 92.4 | CCS(=O)(=O)NCCCNC(=O)Nc1cc(C(=O)N2CCC(c3ccc(C#N)cc3)CC2)ccc1C [Example 216, 3-[5-[4-(4-cyanophenyl)piperidine-1-carbonyl]-2-methyl-phenyl]-1-[3-(ethylsulfonylamino)propyl]urea] |
| 87 | Cc1ccc(C(=O)N2CCC(c3ccc(C#N)cc3)CC2)cc1NC(=O)NCCCNS(=O)(=O)C(C)C [Example 217, 1-[5-[4-(4-cyanophenyl)piperidine-1-carbonyl]-2-methyl-phenyl]-3-[3-(propan-2-ylsulfonylamino)propyl]urea] |
| 84.4 | Cc1ccc(C(=O)N2CCC(c3ccc(C#N)cc3)CC2)cc1NC(=O)N[C@@H]1CCN(S(C)(=O)=O)C1 [Example 218, 1-[5-[4-(4-cyanophenyl)piperidine-1-carbonyl]-2-methyl-phenyl]-3-[(3R)-1-methylsulfonylpyrrolidin-3-yl]urea] |
| 88.8 | CCS(=O)(=O)N1CC[C@@H](NC(=O)Nc2cc(C(=O)N3CCC(c4ccc(C#N)cc4)CC3)ccc2C)C1 [Example 219, 3-[5-[4-(4-cyanophenyl)piperidine-1-carbonyl]-2-methyl-phenyl]-1-[(3R)-1-ethylsulfonylpyrrolidin-3-yl]urea] |
